Experimental data as given in ChEMBL document CHEMBL6109122 (J Med Chem, 2025).
Active and inactive are the calls of the source. No cut-off for these calls is given here.

Tests used:
[1] = biological target: T1, Protein cereblon/Non-receptor tyrosine-protein kinase TYK2 (Homo sapiens, UniProt P29597+Q96SW2); experiment: PROTAC activity at CRBN/TYK2 in human Jurkat cells assessed as induction of degradation of TYK2 at 100 nM measured after 10 hrs by Western blot analysis relative to control; format: cell-based
T1 sequence (P29597 whole entry, looked up): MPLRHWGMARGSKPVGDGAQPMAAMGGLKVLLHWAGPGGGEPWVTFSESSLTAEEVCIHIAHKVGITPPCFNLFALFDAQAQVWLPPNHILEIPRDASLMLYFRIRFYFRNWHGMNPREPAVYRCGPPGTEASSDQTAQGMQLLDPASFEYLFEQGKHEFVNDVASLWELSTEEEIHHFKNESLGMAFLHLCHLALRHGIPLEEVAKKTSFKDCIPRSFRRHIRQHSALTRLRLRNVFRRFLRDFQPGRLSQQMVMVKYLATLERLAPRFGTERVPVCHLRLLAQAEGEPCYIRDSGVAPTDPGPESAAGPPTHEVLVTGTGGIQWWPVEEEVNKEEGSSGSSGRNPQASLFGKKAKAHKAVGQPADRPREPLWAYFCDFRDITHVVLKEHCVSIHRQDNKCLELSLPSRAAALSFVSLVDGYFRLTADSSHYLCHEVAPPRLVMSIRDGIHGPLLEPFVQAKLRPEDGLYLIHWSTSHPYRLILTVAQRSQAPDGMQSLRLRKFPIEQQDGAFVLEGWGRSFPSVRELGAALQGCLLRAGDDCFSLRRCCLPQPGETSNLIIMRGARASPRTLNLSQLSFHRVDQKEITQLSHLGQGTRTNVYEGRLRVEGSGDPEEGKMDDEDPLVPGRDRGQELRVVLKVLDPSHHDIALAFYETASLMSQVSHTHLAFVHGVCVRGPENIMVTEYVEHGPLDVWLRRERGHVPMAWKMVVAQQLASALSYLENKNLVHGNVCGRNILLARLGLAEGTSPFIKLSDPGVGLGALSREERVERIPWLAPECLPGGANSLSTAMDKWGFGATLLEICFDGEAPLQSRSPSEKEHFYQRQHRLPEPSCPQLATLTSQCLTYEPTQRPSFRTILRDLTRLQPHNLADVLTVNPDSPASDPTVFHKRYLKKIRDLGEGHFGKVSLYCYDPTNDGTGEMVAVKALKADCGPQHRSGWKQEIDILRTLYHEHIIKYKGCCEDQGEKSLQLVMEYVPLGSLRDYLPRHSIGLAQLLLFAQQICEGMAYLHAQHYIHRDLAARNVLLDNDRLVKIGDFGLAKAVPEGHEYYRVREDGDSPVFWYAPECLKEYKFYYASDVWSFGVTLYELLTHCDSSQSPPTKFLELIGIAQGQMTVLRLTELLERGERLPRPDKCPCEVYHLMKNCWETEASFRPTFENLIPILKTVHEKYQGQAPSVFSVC
T1 sequence (Q96SW2 whole entry, looked up): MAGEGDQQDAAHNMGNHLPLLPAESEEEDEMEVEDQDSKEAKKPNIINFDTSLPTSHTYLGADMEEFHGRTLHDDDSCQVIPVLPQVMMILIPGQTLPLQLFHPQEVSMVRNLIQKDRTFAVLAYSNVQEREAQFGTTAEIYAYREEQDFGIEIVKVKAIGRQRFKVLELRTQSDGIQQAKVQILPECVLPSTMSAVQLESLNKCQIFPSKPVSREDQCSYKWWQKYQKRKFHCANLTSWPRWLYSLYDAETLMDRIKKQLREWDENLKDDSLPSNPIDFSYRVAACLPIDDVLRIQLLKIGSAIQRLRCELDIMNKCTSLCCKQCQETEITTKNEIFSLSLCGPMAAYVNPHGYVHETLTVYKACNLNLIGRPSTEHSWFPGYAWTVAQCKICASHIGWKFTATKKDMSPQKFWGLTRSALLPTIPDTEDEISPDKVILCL

[2] = Metabolic stability in mouse liver microsomes assessed as half life measured up to 120 mins by LC-MS/MS analysis; format: ADME, Microsome
[3] = system: Jurkat; experiment: Downregulation of JAK2 protein level in human Jurkat cells at 1 to 100 nM measured after 10 hrs by Western blot analysis; format: functional, cell-based; conditions: dose 1-100 nM
[4] = system: Jurkat; experiment: Downregulation of TYK2 protein level in human Jurkat cells at 30 nM measured after 4 hrs by DIA-Based Proteomic analysis; format: functional, cell-based
[5] = system: Jurkat; experiment: Downregulation of Aiolos level in human Jurkat cells at 30 nM measured after 4 hrs by DIA-Based Proteomic analysis; format: functional, cell-based
[6] = biological target: Non-receptor tyrosine-protein kinase TYK2 (Homo sapiens, UniProt P29597); experiment: Binding affinity to TYK2 JH1 domain (unknown origin) by ADP-glo kinase assay
Sequence of Non-receptor tyrosine-protein kinase TYK2 (P29597 whole entry, the tested form may be a part): as the sequence (P29597 whole entry, looked up) above

[7] = biological target: T2, Tyrosine-protein kinase JAK1 (Homo sapiens, UniProt P23458); experiment: Binding affinity to JAK1 (unknown origin) by ADP-glo kinase assay
T2 sequence (P23458 whole entry): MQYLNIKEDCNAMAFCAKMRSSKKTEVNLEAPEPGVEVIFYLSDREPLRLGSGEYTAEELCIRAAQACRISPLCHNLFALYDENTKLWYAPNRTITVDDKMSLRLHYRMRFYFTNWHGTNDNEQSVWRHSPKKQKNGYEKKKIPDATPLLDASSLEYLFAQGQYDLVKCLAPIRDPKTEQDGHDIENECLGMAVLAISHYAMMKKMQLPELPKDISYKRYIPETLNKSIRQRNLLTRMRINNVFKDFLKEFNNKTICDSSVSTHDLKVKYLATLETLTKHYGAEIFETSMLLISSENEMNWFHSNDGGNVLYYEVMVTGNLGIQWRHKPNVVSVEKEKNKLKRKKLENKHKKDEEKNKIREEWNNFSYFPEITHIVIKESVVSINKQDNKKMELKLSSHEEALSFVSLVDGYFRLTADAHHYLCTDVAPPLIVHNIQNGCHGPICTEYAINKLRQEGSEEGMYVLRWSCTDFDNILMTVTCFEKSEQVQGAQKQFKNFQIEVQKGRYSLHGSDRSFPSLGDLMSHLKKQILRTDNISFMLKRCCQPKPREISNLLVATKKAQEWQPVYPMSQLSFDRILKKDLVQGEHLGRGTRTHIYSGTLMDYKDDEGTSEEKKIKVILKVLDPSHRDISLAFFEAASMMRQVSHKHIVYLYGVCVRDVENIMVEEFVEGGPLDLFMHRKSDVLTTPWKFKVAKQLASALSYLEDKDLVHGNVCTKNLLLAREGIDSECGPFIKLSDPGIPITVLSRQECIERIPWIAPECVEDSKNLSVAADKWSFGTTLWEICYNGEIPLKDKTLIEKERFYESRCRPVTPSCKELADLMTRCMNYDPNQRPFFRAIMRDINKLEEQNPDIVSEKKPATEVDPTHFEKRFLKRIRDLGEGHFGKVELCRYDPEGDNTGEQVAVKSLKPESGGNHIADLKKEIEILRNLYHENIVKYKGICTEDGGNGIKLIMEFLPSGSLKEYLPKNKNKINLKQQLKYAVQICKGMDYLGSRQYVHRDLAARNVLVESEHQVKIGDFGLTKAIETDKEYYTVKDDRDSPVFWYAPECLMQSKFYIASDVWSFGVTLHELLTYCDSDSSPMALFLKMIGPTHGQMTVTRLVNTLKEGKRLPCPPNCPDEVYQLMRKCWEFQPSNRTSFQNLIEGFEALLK

[8] = biological target: T3, Tyrosine-protein kinase JAK3 (Homo sapiens, UniProt P52333); experiment: Binding affinity to JAK3 (unknown origin) by ADP-glo kinase assay
T3 sequence (P52333 whole entry): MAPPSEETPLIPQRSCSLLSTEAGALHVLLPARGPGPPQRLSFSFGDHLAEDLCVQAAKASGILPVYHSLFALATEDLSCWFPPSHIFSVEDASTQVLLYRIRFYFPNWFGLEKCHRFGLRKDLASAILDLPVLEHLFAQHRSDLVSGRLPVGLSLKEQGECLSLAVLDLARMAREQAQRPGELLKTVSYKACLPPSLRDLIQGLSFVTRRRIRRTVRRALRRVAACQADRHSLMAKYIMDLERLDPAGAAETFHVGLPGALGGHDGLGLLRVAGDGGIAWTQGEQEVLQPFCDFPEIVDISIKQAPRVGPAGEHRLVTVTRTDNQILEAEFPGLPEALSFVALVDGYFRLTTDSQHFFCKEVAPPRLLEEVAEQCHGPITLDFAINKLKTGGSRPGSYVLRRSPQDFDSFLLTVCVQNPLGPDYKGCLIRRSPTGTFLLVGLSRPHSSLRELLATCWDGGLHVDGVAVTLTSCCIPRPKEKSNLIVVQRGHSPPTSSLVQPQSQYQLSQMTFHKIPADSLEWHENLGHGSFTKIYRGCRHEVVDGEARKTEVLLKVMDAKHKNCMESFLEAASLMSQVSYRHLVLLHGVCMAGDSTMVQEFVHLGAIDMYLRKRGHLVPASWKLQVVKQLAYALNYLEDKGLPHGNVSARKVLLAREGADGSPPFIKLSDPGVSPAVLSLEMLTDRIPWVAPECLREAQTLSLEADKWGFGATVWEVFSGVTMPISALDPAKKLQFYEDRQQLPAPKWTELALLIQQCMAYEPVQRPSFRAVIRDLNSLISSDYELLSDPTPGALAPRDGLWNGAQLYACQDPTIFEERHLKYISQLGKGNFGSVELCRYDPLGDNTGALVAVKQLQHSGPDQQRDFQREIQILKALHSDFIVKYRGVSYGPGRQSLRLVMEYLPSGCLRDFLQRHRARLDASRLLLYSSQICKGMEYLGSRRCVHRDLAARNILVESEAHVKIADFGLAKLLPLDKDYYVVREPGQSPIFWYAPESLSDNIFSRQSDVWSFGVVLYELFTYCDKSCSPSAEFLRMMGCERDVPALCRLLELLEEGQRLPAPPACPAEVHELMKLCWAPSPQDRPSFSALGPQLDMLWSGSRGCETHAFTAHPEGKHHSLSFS

[9] = biological target: T2, Tyrosine-protein kinase JAK1; experiment: Displacement of fluorophore-labeled probe from JAK1 JH2 domain (unknown origin) by HTRF assay
[10] = Inhibition of TYK2 dependent STAT3 phosphorylation in IL-6 stimulated human PBMC cells preincubated for 60 mins followed by IL-6 stimulation and measured after 60 mins by FACS assay; format: cell-based
[11] = biological target: T1, Protein cereblon/Non-receptor tyrosine-protein kinase TYK2; experiment: PROTAC activity at CRBN/TYK2 in human Jurkat cells assessed as induction of degradation of TYK2 at 10 nM measured after 4 hrs by Western blot analysis; format: cell-based
[12] = biological target: T1, Protein cereblon/Non-receptor tyrosine-protein kinase TYK2; experiment: PROTAC activity at CRBN/TYK2 in human Jurkat cells assessed as induction of degradation of TYK2 at 10 nM preincubated with thalidomide for 2 hrs followed by compound addition and measured after 10 hrs by Western blot analysis; format: cell-based
[13] = Inhibition of IFN-alpha activated TYK2 dependent STAT3 phosphorylation in human Jurkat cells incubated for 10 hrs by Western blot analysis; format: cell-based
[14] = Half life in male ICR mouse at 5 mg/kg, ip measured up to 24 hrs by LC-MS/MS analysis; format: ADME, organism-based; conditions: in vivo
[15] = Tmax in male ICR mouse at 5 mg/kg, ip measured up to 24 hrs by LC-MS/MS analysis; format: ADME, organism-based; conditions: in vivo
[16] = AUC (0 to infinity) in male ICR mouse at 5 mg/kg, ip measured up to 24 hrs by LC-MS/MS analysis; format: ADME, organism-based; conditions: in vivo
[17] = MRT (0 to t) in male ICR mouse at 5 mg/kg, ip measured up to 24 hrs by LC-MS/MS analysis; format: ADME, organism-based; conditions: in vivo
[18] = system: Mus musculus; experiment: Anti-inflammatory activity in imiquimod-induced female BALB/c mouse psoriasis model assessed as reduction in acanthosis at 5 mg/kg, ip administered daily topically for 6 days by H and E staining based analysis; format: functional, organism-based; conditions: time 6.0 day
[19] = system: Mus musculus; experiment: Anti-inflammatory activity in imiquimod-induced female BALB/c mouse psoriasis model assessed as reduction in concomitant splenomegaly at 5 mg/kg, ip administered daily topically for 6 days; format: functional, organism-based; conditions: time 6.0 day
[20] = system: Mus musculus; experiment: Anti-inflammatory activity in imiquimod-induced female BALB/c mouse psoriasis model assessed as effect on body weight at 5 mg/kg, ip administered daily topically for 6 days; format: functional, organism-based; conditions: time 6.0 day
[21] = species on record: Mus musculus; experiment: Anti-inflammatory activity in imiquimod-induced female BALB/c mouse psoriasis model assessed as reduction in TYK2 protein expression by Immunohistochemical analysis; format: functional, organism-based
[22] = species on record: Mus musculus; experiment: Anti-inflammatory activity in imiquimod-induced female BALB/c mouse psoriasis model assessed as reduction in IL-17 expression in serum by ELISA method; format: functional, organism-based
[23] = species on record: Mus musculus; experiment: Anti-inflammatory activity in imiquimod-induced female BALB/c mouse psoriasis model assessed as reduction in INF-alpha expression in serum by ELISA method; format: functional, organism-based
[24] = species on record: Mus musculus; experiment: Anti-inflammatory activity in imiquimod-induced female BALB/c mouse psoriasis model assessed as reduction in IL-23 expression in skin by ELISA method; format: functional, organism-based
[25] = species on record: Mus musculus; experiment: Anti-inflammatory activity in imiquimod-induced female BALB/c mouse psoriasis model assessed as reduction in INF-alpha expression in skin by ELISA method; format: functional, organism-based
[26] = Apparent permeability of the compound in human Caco-2 cells at 10 uM measured up to 120 min by LC-MS/MS analysis; format: ADME, cell-based

CNC(=O)c1cnc(Nc2ccc(C(=O)NC3CCC(Nc4ccc5c(c4)C(=O)N(C4CCC(=O)NC4=O)C5=O)CC3)cn2)cc1Nc1cccc(-c2ncc(F)cn2)c1OC (stereo unspecified)
Activity [1]: 90%
half-life [2]: 1.68 h
Activity [3]: Active
Activity [4]: Active
Activity [5]: inactive
IC50 [6]: > 10 µM
IC50 [7]: > 10 µM
IC50 [8]: > 10 µM
IC50 [9]: > 0.1 µM
IC50 [10]: > 10 µM
Activity [11]: Active
Activity [12]: inactive
IC50 [13]: 0.0067 µM
half-life [14]: 2.7 h
Tmax [15]: 0.4 h
AUC(0-inf) [16]: 4780 ng·h/mL
MRT last at 24 h [17]: 4.1 h
Activity [18]: Active
Activity [19]: Active
Activity [20]: Active
Activity [21]: Active
Activity [22]: Active
Activity [23]: Active
Activity [24]: Active
Activity [25]: Active
Papp at 2 h, 10 µM [26]: < 0.1 ×10⁻⁶ cm/s
